In patent US7320980B2, “Substituted pyrido(1,2-a)pyrimidines and their use as NOS inhibitors” (Gruenenthal GmbH, priority 2003, dated 2008):
Structures can show the parent of a compound that is named as a salt.

system: formaldehyde-induced nociception; assay: Formaldehyde test (rat), second phase; assay type: in vivo; conditions: iv, male Sprague-Dawley rats, second (late) phase of formaldehyde test, pain rate change relative to control
Protocol: The investigations for determining the antinociceptive action of the compounds used according to the invention of the general formula II were carried out by the formaldehyde test on male rats (Sprague-Dawley, 150-170 g, Charles River).
In the formaldehyde test, a distinction is drawn between the first (early) phase (0-15 min after formaldehyde injection) and the second (later) phase (15-60 min after formaldehyde injection), as described in D. Dubuisson, S. G. Dennis, Pain 4, 161-174 (1977). […]
A nociceptive reaction was induced in the freely mobile test animals by a single, subcutaneous formaldehyde injection (50 μl, 5 wt. %) into the dorsal side of the rear hind paw, the reaction being classed according to one of the following behavioural parameters: lifting and holding up the affected paw (score 1), shaking or twitching (score 2), licking and biting (score 3). The differential behaviour induced by the formaldehyde injection was recorded by observing the rats in the late phase of the formaldehyde test and assigned a variable weighting in the evaluation. Normal behaviour, in which the rat places an even load on all four paws, was recorded as a score of 0. […] The nociceptive behaviour was calculated as a “pain rate” (PR). […]
The analgesic action of the compounds of the general formula II used according to the invention was determined as described above.

Row | SMILES | ED50 [mg/kg]
1 | CC1=CC2=NCC(C(=O)c3ccc4ccccc4c3)CN2C=C1 (stereo not drawn) [Example 1, 3-(2′-Naphthoyl)-3,4-dihydro-2H-8-methylpyrido[1,2-a]pyrimidinium perchlorate] | 7.27

biological target: T1, NO synthase (Rattus norvegicus, UniProt P29476); assay: NOS / HTS-NOS assay (radioactive arginine conversion, rat cerebellum enzyme preparation); assay type: biochemical; conditions: rat cerebellum supernatant enzyme, [3H]-arginine substrate, 25° C.; read-out: NOS Arg IC50
T1 construct: the supernatant was then decanted off and frozen in portions at −80° C., discarding the precipitate; from tissue; host or cells: rat cerebellum, 20,000 g supernatant of homogenate
Source text: This assay makes it possible to determine the percentage inhibition of NO synthase (hereinafter referred to as the enzyme) by a compound of the general formula II used according to the invention, optionally in the form of one of the pure stereoisomers thereof, in particular enantiomers or diastereomers, the racemates thereof or in the form of a mixture of stereoisomers, in particular the enantiomers or diastereomers, in any desired mixing ratio, or in each case in the form of the free base thereof or in the form of the physiologically acceptable salt thereof, in particular hydroperchlorate salt or in each case in the form of the solvate thereof, in particular hydrate (hereinafter referred to as the active ingredient), by measuring enzyme activity on exposure to the compound. The enzyme is here mixed under suitable conditions together with radioactively labelled arginine and the particular active ingredient. After termination of the NO formation reaction at a predetermined time, the quantity of unconverted arginine is directly or indirectly determined.
This assay may be carried out at follows: • (a) Incubation of the enzyme with labelled arginine as the substrate in a reaction vessel, • (b) Separation of the labelled arginine from the labelled citrulline optionally arising as a product of the enzymatic reaction at a time at which the concentration of citrulline is rising, • (c) Measurement of the quantity of arginine separated in each case.
Separation is performed by means of a filter plate membrane.
Radioactive arginine is used as the substrate in this HTS-NOS assay. Depending on the type of microtitre plate (MTP), the assay volume may be selected in the range between 25 μl and 250 μl. Depending on the enzyme source used, cofactors and coenzymes are added. The batches are incubated in this microtitre plate (assay MTP) according to step (a) at room temperature and, depending on the enzyme activity used (units), lasts between 5 and 60 minutes. On completion of incubation (step (a)), the plate is placed in a cell harvester, which is equipped with an MTP which has a cation exchange membrane as a filter bottom (filter MTP). All the batches from the assay MTP are transferred into this filter MTP and suction filtered through a cation exchange filter plate, a paper filter loaded with phosphate groups. The filter MTP is then washed with buffer or water. This procedure binds the remaining substrate arginine onto the cation exchanger, while the enzymatically formed radioactive citrulline is quantitatively eluted. Once the filter MTP has been dried and scintillation liquid (Ready Protein, Beckmann Coulter GmbH, Krefeld, Germany) added, the bound arginine can be counted in the scintillation counter (Packard TRI-CARB Liquid Scintillation Analyzer 2000 CA, Packard Instrument, Meriden, Conn. 06450, USA). Low radioactivity indicates an uninhibited enzyme reaction. An inhibited enzyme reaction means that the radioactive arginine has not been converted. It may be concluded from this that there is then a high level of radioactivity on the filter.
The NOS and HTS-NOS assays were performed as described above.
Rat cerebella were used as the starting tissue. The animals were stunned and killed, the brain tissue, the cerebellum, was dissected out, 1 ml of enzyme preparation buffer (4° C.) was added per cerebellum, and the tissue was disrupted for 1 min at 6000 rpm in a Polytron homogeniser. The mixture was then centrifuged at 4° C. for 15 min at 20,000 g, and the supernatant was then decanted off and frozen in portions at −80° C., discarding the precipitate. The frozen supernatant was subsequently thawed for the assay and pipetted out onto a microtitre plate.
96-well MTPs with a well capacity of <250 μl were used.
Once pipetting was complete, a lid was placed on this MTP (assay MTP) and incubation performed at 25° C. (room temperature [RT]) for 5-60 min, depending on the quantity and activity of the enzyme used (see in this connection Table 1). […]

Row | IC50 [µM] | SMILES
2 | 7.6 | CC1=CC=CC2=NCC(C(=O)c3ccc(-c4ccccc4)cc3)CN12 (stereo not drawn) [Example 9, 3-(4′-Biphenylcarbonyl)-3,4-dihydro-2H-6-methylpyrido[1,2-a]pyrimidinium perchlorate]
3 | 6.7 | CC1=CC2=NCC(C(=O)c3ccc4ccccc4c3)CN2C(C)=C1 (stereo not drawn) [Example 2, 3-(2′-Naphthoyl)-3,4-dihydro-2H-6,8-dimethylpyrido[1,2-a]pyrimidinium perchlorate]
4 | 1.4 | CC1=CC2=NCC(C(=O)c3ccc4ccccc4c3)CN2C=C1 (stereo not drawn) [Example 1, 3-(2′-Naphthoyl)-3,4-dihydro-2H-8-methylpyrido[1,2-a]pyrimidinium perchlorate]
5 | 8.4 | CC1=CC2=NCC(C(=O)c3ccccc3)CN2C(C)=C1 (stereo not drawn) [Example 6, 3-Benzoyl-3,4-dihydro-2H-6,8-dimethylpyrido[1,2-a]pyrimidinium perchlorate]
6 | 9.1 | CC1=CC2=NCC(C(=O)c3ccccc3)CN2C=C1 (stereo not drawn) [Example 5, 3-Benzoyl-3,4-dihydro-2H-8-methylpyrido[1,2-a]pyrimidinium perchlorate]
7 | 6.4 | CC1=CC2=NCC(C(=O)c3ccc(Cl)cc3)CN2C=C1 (stereo not drawn) [Example 7, 3-(4′-Chlorobenzoyl)-3,4-dihydro-2H-8-methylpyrido[1,2-a]pyrimidinium perchlorate]
8 | 14 | CC1=CC2=NCC(C(=O)c3ccc(Br)cc3)CN2C=C1 (stereo not drawn) [Example 3, 3-(4′-Bromobenzoyl)-3,4-dihydro-2H-8-methylpyrido[1,2-a]pyrimidinium perchlorate]
9 | 8.5 | CC1=CC2=NCC(C(=O)c3ccc(F)cc3)CN2C=C1 (stereo not drawn) [Example 4, 3-(4′-Fluorobenzoyl)-3,4-dihydro-2H-8-methylpyrido[1,2-a]pyrimidinium perchlorate]
10 | 13 | CC1=CC2=NCC(C(=O)c3ccc(-c4ccccc4)cc3)CN2C=C1 (stereo not drawn) [Example 8, 3-(4′-Biphenylcarbonyl)-3,4-dihydro-2H-8-methylpyrido[1,2-a]pyrimidinium perchlorate]

system: not given; assay: not given; conditions: not given

Row | melting point [°C] | SMILES
11 | > 290 | CC1=CC2=NCC(C(=O)c3ccccc3)CN2C=C1 (stereo not drawn) (as salt: perchlorate) [Example 5, 3-Benzoyl-3,4-dihydro-2H-8-methylpyrido[1,2-a]pyrimidinium perchlorate]
12 | 78 | CC1=CC2=NCC(C(=O)c3ccccc3)CN2C(C)=C1 (stereo not drawn) (as salt: perchlorate) [Example 6, 3-Benzoyl-3,4-dihydro-2H-6,8-dimethylpyrido[1,2-a]pyrimidinium perchlorate]
13 | 123 to 125 | CC1=CC2=NCC(C(=O)c3ccc(Cl)cc3)CN2C=C1 (stereo not drawn) (as salt: perchlorate) [Example 7, 3-(4′-Chlorobenzoyl)-3,4-dihydro-2H-8-methylpyrido[1,2-a]pyrimidinium perchlorate]
14 | 111 | CC1=CC2=NCC(C(=O)c3ccc(-c4ccccc4)cc3)CN2C=C1 (stereo not drawn) (as salt: perchlorate) [Example 8, 3-(4′-Biphenylcarbonyl)-3,4-dihydro-2H-8-methylpyrido[1,2-a]pyrimidinium perchlorate]
15 | 158 to 161 | CC1=CC2=NCC(C(=O)c3ccc(Br)cc3)CN2C=C1 (stereo not drawn) (as salt: perchlorate) [Example 3, 3-(4′-Bromobenzoyl)-3,4-dihydro-2H-8-methylpyrido[1,2-a]pyrimidinium perchlorate]
